3 compounds from US20040116527A1, “Agents against stress-induced diseases” (AJINOMOTO CO., INC., priority 2001, published 2004) can be followed below.

The test system of series [1] is mojyako (young yellow tail). Description: Feeding test under stress from feeding at high density in a water tank (Example 7). As to conditions: for Total feed intake: 24 feeding days; for Daily feeding ratio (%) / Daily increment (%) / Feed efficiency (%) / Survival rate (%): 28 day test; for Survival rate (%): 40 fish per 800-L tank; for feed intake compared with the remaining experimental lots (involving higher body weight increment): over the 3 week to 4 week. In kind it is in vivo. The protocol:
Test feeds were prepared by adding lysine hydrochloride salt at the ratio shown in Table 3 below to a commercially available mashed feed for mojyako. The lysine content in the dry feed is thereby at 4.8%, which is far above the dietetic requirement (1.78%). For comparison, further, a feed was prepared by adding arginine hydrochloride salt at the same level instead of lysine hydrochloride salt, for use at the test.
As test fish, each group of 40 mojyako fishes of mean fish body weight of about 35 g were placed in one 800-L water tank, to which the feeds were fed two times daily at 8:00 in the morning and 16:00 in the afternoon to satiation, for a total of 4 weeks. During the term, their body weights were measured weekly. Herein, feeding was not done at 16:00 in the afternoon on the day before the day for body weight measurement.

Series [2] relates to Wistar rats. Briefly: Stress-induced gastric ulcer experiment, oral aqueous solutions (Example 5). Format: in vivo, rat. Conditions: 5 mL orally once daily for 3 days, water immersion 5 hours on day 4; compared with control group fed pure water. The protocol: To assess the effects of lysine administration on stress-induced gastric ulcers, 7-week Wistar rats (male; Nippon Charles-River) were used. For 7 days, normal diet (CRF-1; Oriental Yeast) was fed ad libitum to the rats, for preliminary feeding. For the stress experiment, rats were divided into the following three groups for feeding for another 3 days under starvation conditions: I) a control group (N=8) fed with pure water; 2) a group (N=8) given with an aqueous lysine solution (40 mg/mL); and 3) a group (N=4) given with an aqueous mixture solution of lysine glutamate salt (40 mg/mL) and arginine (40 mg/mL). The aqueous solutions were given to the individual groups in such a manner that dosing of 5 mL of each solution was enforced with an oral probe, once daily at 9:00 in the morning.
During the term, water was fed ad libitum. On day 4, the rats were placed in a stress gage (Natsume Seisakusho; KN-468) as in Example 3, to immerse the rats in water (temperature of 22 to 25° C.) so as to soak their breast for 5 hours to induce stress-induced gastric ulcer.

The test system of series [3] is Wistar rats. Description: Elevated T-maze test after water-immersion stress, oral aqueous solutions (Example 6). Format: in vivo, rat. The protocol: Seven-week Wistar rats (male, Nippon Charles-River) were used. For 7 days, the normal diet (CRF-1; Oriental Yeast) was fed ad libitum to the rats, for preliminary feeding. For the stress experiment, the rats were divided into the following three groups for feeding for another 3 days under starvation conditions: 1) a group (N=14) fed with an aqueous glutamine solution (120 mg/mL); 2) a group (N=14) given with an aqueous lysine solution (120 mg/mL); and 3) a group (N=14) given with an aqueous mixture solution of lysine glutamate salt (120 mg/mL) and arginine (120 mg/mL). The aqueous solutions were given to the individual groups in such a manner that dosing of 5 mL of each solution was enforced with an oral probe, once daily at 9:00 in the morning. During the term, water was fed ad libitum. On day 4, the rats were placed in a stress gage (Natsume Seisakusho; KN-468) to immerse the rats in water (temperature of 22 to 25° C.) so as to soak their breast for 4 hours for stress loading. Thereafter, elevated T-maze (see Example 1) test was done, for counting the time duration for searching action.

A further series has as its system rats. Briefly: Water-immersion restraint model of stress-induced gastric ulcer, diets (Example 3). In kind it is in vivo, rat. As to conditions: 3-week feeding, 18 h starvation, water immersion 6 hours at 22 to 25 C. The protocol:
Rats were fed with the low lysine diet and the lysine-added diet supplemented for lysine deficiency (see Table 1) for 3 weeks. After starvation for 18 hours, the rats were placed in a stress gage (Natsume Seisakusho; KN-468) to immerse the rats in water (temperature of 22 to 25° C.) so as to soak their breast for 6 hours. Thereafter, a stomach was resected, to calculate the area with gastric bleeding, to examine the degree of gastric bleeding with the NHI image software. […] A correlation between gastric bleeding and the incidence of gastric ulcer is observed in this model. Therefore, it can be concluded that adding lysine to diet can prevent stress-induced gastric ulcer occurring on the low lysine diet.

In series [4] the test system is Broiler (species: Arbor Acres). Description: Broiler feeding at normal and high density under very hot conditions (Example 8). In kind it is in vivo. As to conditions: loading of lysine alone, ratio of arginine/lysine in the feed lowered. From the text: Broiler (species: Arbor Acres) was fed under very hot conditions.
The feeding density was 8 chickens/1 m^2 (normal density) and 12 chickens/1 m^2 (high density) in two lots; the feeds were the following three groups: Feed 1=normal feed; Feed 2=normal feed+lysine (the lysine content 2-fold that in Feed 1); or Feed 3=normal feed+lysine+arginine (the lysine content and the arginine content were individually 2-fold those in Feed 1). A total of 6 experimental examples were set as combinations of the feeding densities and the feeds. The test was started on age 21 days (the mean body weight then was 722 g). The feeding results (body weight increment, feed requirement) on age 48 days were compared thereto. On the age 48 days, the chickens were sacrificed to death, for the evaluation of their meat quality (fat ratio in abdominal cavity). The feed requirement was expressed by the feed amount required for the increment of 1 g/body weight, as calculated by dividing the total feed intake by the body weight increment.

In series [5] the test system is Wistar rats. Description: Model with stress-induced appetite loss, foot shock stress (Example 4). As to conditions: lysine-added diet (27 g/kg) vs control diet (13.4 g/kg), fed from 4 days before foot shock stress. Format: in vivo, rat. The protocol: Wistar rats (male; age 13 weeks; about 400 g or so; N=16) were used at this experiment. Four days before the start of the experiment and throughout the stress experiment, the rats were fed with normal diet (control diet; lysine at 13.4 g/kg) and the lysine-added diet (27 g/kg). Under conditions of water ad libitum, feeding was done from 9:00 to 11:00. The rats were subjected to foot shock stress (1 mA/3 minutes; once per one hour at 19:00 to 7:00 on the next day) on day 4 of feeding; foot shock stress (1 mA/3 minutes, once per 2 hours at 19:00 to 7:00 on the next day) on day 5; and foot shock stress (1 mA/3 minutes, once at 7:00) on day 6. The changes in the total feed intake each day and the change of body weight over days were measured.

Structures are written as SMILES.

For the compound `N=C(N)NCCC[C@H](N)C(=O)O` [Arginine, L-Arginine, reference compound], in series [1], the “Total feed intake” value amounted to 3072 g, the “Daily feeding ratio (%)” value is 4.09%, the “Daily increment (%)” value was 3.36% and the “Feed efficiency (%)” value was determined as 82.0%. In series [1], the “Survival rate (%)” value is on record as 100%, the “Mean body weight at start” value came out at 35.5, the “Weekly feed intake (g) for 0-1 week” value came to 18.7 g and the “Weekly feed intake (g) for 1-2 week” value worked out at 36.7 g. For the same compound, in series [1], the “Weekly feed intake (g) for 2-3 week” value is 54.5 g, the “Weekly feed intake (g) for 3-4 week” value was 76.8 g, the “Mean body weight on 1 week” value is on record as 45.7 and the “Mean body weight on 2 week” value was found to be 61.5. In addition, in series [1], the “Mean body weight on 3 week” value came out at 77.6, the “Mean body weight on 4 week (final)” value stood at 98.5 and the “feed intake compared with the remaining experimental lots (involving higher body weight increment)” value is reported as “could not be obtained”.
Consider `NCCCC[C@H](N)C(=O)O` [Lysine, L-Lysine], for which the “areas of gastric bleeding” value in the series with Wistar rats [2] was “significant reduction”. In addition, the “time duration for searching action” value with Wistar rats [3] (5 mL orally once daily for 3 days, water immersion 4 hours on day 4, compared with the glutamine group) is on record as “significantly prolonged”. The “degree in areas of gastric bleeding (ratio of the area of gastric bleeding to the total gastric area)” value with rats is “can prevent”. In series [1], the “Total feed intake” value is listed as 3452 g, the “Daily feeding ratio (%)” value is 4.29%, the “Daily increment (%)” value is 3.68% and the “Feed efficiency (%)” value turned out to be 85.8%. Besides, in series [1], the “Survival rate (%)” value was 100%, the “Mean body weight at start” value turned out to be 34.8, the “Weekly feed intake (g) for 0-1 week” value came to 18.4 g and the “Weekly feed intake (g) for 1-2 week” value is listed as 38.3 g. In series [1], the “Weekly feed intake (g) for 2-3 week” value is 59.9 g, the “Weekly feed intake (g) for 3-4 week” value is listed as 86.3 g, the “Mean body weight on 1 week” value stood at 46.4 and the “Mean body weight on 2 week” value turned out to be 63.7. Also, in series [1], the “Mean body weight on 3 week” value came to 84.2, the “Mean body weight on 4 week (final)” value is given as 108.9 and the “feed intake compared with the remaining experimental lots (involving higher body weight increment)” value is given as “larger”. The “body weight increment compared with the control” value in series [1] (at the termination of the test) is given as 17%. In addition, in series [4], the growth inhibition entry is “no growth inhibition is observed”. The “effect on total feed intake and body weight change under stress” value with Wistar rats [5] is reported as “preventive effect”.
On to `NC(=O)CC[C@H](N)C(=O)O` [glutamine, L-Glutamine, reference compound], for which the “time duration for searching action, glutamine group vs physiological saline group” value with Wistar rats [3] (evaluation of the effect of glutamine) is “No significant difference”.
